[nps] = N3'-P5' thiophosphoramidate linkage (3'-amino-3'-deoxy nucleosides); {Palm} = O-[2-hydroxy-3-(hexadecanoylamino)propyl] group (palmitoyl lipid)
Key:
[1] = tested on: patients with high or intermediate-2 risk myelofibrosis; assay: Clinical study (NCT01731951): adverse events by common terminology criteria (Version 4.03); format: in vivo, human
Method: (§1) In an investigator-sponsored single-center study (ClinicalTrials.gov, Identifier: NCT01731951), imetelstat sodium was administered to patients with high or intermediate-2 risk myelofibrosis. Adverse events were monitored by common terminology criteria (Version 4.03), and responses were monitored by the International Working Group criteria. Eligibility criteria included platelets≥50×10^9/L.
(§2) Imetelstat sodium was administered by a 2-hour intravenous infusion (9.4 mg/kg) every three weeks (cohort A) or weekly×3 followed by every three weeks (cohort B). In addition, patient samples were screened for mutations in ASXL1, SRSF2, SF3B1, and U2AF1 by DNA sequencing. Quantitative PCR was used to measure JAK2V617F burden (assay sensitivity 0.01%). Laboratory correlative studies included analyses of granulocyte telomere length, mononuclear cell telomerase activity, and the presence of human telomerase reverse transcriptase (hTERT) isoforms.
(§3) Thirty-three patients were accrued. The first 18 patients who were enrolled and followed for a minimum of three months or discontinued were assessed herein: eleven for cohort A, and seven for cohort B; 44% primary myelofibrosis, 33% post-PV myelofibrosis and 22% post-ET myelofibrosis. The median age was 68 years, and the baseline risk was high in 56% of the patients and intermediate-2 in 44% of the patients. Seven patients were transfusion-dependent. Median spleen size was 13 cm, and eleven patients had constitutional symptoms. Karyotype was abnormal in seven patients, and 89% were JAK2-mutated. Fifteen patients (83%) were previously treated, including seven with a JAK inhibitor and three with pomalidomide.

[2] = tested on: mononuclear cell telomerase activity; assay: Laboratory correlative study: mononuclear cell telomerase activity; format: in vivo, human; settings: treated myelofibrosis patients
Method: as §2

[3] = tested on: patients with high or intermediate-2 risk myelofibrosis; assay: Investigator-sponsored single-center clinical study (NCT01731951): responses by International Working Group criteria; format: in vivo, human
Method: as §1, §2, §3

[4] = tested on: human telomerase reverse transcriptase (hTERT) isoforms; assay: Laboratory correlative study: human telomerase reverse transcriptase (hTERT) isoforms; format: in vivo; settings: treated myelofibrosis patients
Method: as §2

[5] = tested on: granulocyte telomere length; assay: Laboratory correlative study: granulocyte telomere length; format: in vivo, human; settings: treated myelofibrosis patients
Method: as §2

[6] = cohort A (9.4 mg/kg every three weeks)
[7] = cohort B (9.4 mg/kg weekly x3 followed by every three weeks)
[8] = first 18 patients, 9.4 mg/kg iv

Substance: 5′-[O-[2-hydroxy-3-[(1-oxohexadecyl)amino]propyl] phosphorothioate]-d(3′-amino-3′-deoxy-P-thio)(T-A-G-G-G-T-T-A-G-A-C-A-A) (SEQ ID NO:1) sodium salt (13) (TAGGGTTAGACAA; all [nps], 5' {Palm}*, sugars by position and methylation of C not given here; 3'-amino-3'-deoxy nucleosides, sodium salt) [imetelstat sodium, sodium salt of imetelstat, a synthetic lipid-conjugated, 13-mer oligonucleotide N3′ P5′-thio-phosphoramidate]
- grade-3 anemia [1, 6]: 9%
- grade-3 thrombocytopenia [1, 6]: 27%
- grade-4 treatment-related adverse events [1, 6]: no grade-4 treatment-related adverse events
- grade-3 anemia [1, 7]: one
- grade-3 neutropenia [1, 7]: one
- grade-3 thrombocytopenia [1, 7]: one
- grade-4 thrombocytopenia [1, 7]: 29%
- dose reduction necessary because of grade 3 or 4 myelosuppression ([1]; first 18 patients): 11%
- patients remaining on treatment ([1]; median follow-up of 3.2 months, first 18 patients): 89%
- grade-3/4 myelosuppression ([1]; patients with an unmutated spliceosome genotype): 25%
- grade-3/4 myelosuppression ([1]; spliceosome-mutated patients): 67%
- effect on telomerase activity [2]: suppression of telomerase activity
- complete molecular responses ([3]; CR patients, U2AF1Q157P and 10% JAK2V617F, SF3B1K666E and 50% JAK2V617F): two
- reduction in U2AF1 469_insAGTATG mutation ([3]; a third CR patient): > 50%
- patients with leukocytosis who normalized their count or had a >50% reduction ([3]; among thirteen patients with leukocytosis): 77%
- CR patients transfusion-dependent at baseline who became transfusion-independent ([3]; first 18 patients): Two
- complete or partial resolution of leukoerythroblastosis ([3]; first 18 patients): 61%
- overall response rate ([3]; first 18 patients, 9.4 mg/kg 2-hour intravenous infusion, cohorts A and B): 44%
- CR patients with reversal of bone marrow fibrosis and recovery of normal megakaryocyte morphology [3, 8]: 22%
- partial response (PR), number of patients [3, 8]: 1 patients
- patients who met the bone marrow and peripheral blood morphologic criteria for complete response (CR) or partial response (PR) [3, 8]: 28%
- patients with clinical improvement ([3]; first 18 patients, pending validation of response duration and resolution of drug-induced grade-1 thrombocytopenia): three
- patients achieving CR ([3]; six patients with a spliceosome mutated genotype): 50%
- patients achieving CR ([3]; twelve patients with an unmutated spliceosome genotype): 8%
- effect on hTERT isoform pattern [4]: alteration of the hTERT isoform pattern
- effect on telomere length [5]: shortening of telomere length

Substance: imetelstat: telomerase inhibitor; synthetic lipid-conjugated, 13-mer oligonucleotide N3′ P5′-thio-phosphoramidate (DNA TAGGGTTAGACAA; listed as DNA, chemistry not fully specified)
- likelihood of complete or partial remission ([3]; ASXL1-mutated cases among the 33 study patients): 0%
- likelihood of complete or partial remission ([3]; ASXL1-unmutated cases among the 33 study patients): 36%
